From US12624068B2, “Exon skipping by peptide nucleic acid derivatives” (OliPass Corporation, priority 2016, dated 2026) come the findings set out here.

Series [1] concerns sodium current in PC3 cells. Description: CoroNa assay of sodium current in PC3 cells. Conditions: 30 hours. The series is classed as cell-based, human. The procedure:
Cellular sodium current is measured by patch clamp. As sodium ions enter cell, the intra-cellular sodium ion level increases. The intra-cellular sodium level can be probed using a sodium ion sensitive dye. “CoroNa Green” is a dye with a sodium ion chelator of crown ether type. Upon chelation with a sodium ion, “CoroNa Green” emits green fluorescence. “CoroNa Green” has been used to indirectly measure the intra-cellular sodium level. […] [Proc. Natl. Acad. Sci. USA vol 106(38), 16145-16150 (2009)]
PC3 cells are known to abundantly express the human SCN9A mRNA, although there are other SCN subtypes concomitantly expressed. [Br J. Pharmacol. vol 156, 420-431 (2009)] Thus an inhibition of SCN9A mRNA expression may lead to a considerable reduction of the sodium current in PC3 cells, if the sodium ion current by the Nav1.7 sodium channel subtype occupies a marked portion of the total sodium ion current in PC3 cells. It is note that the SCN9A mRNA encodes the Nav1.7 sodium channel subtype.
“SCN-ASO 7” was evaluated for its ability to inhibit the sodium ion current in PC3 cells using “CoroNa Green” as follows.
[ASO Treatment] PC3 cells grown in 35 mm culture dish containing 2 mL F-12K medium were treated with “SCN-ASO 7” at 0 zM (negative control), 100 zM or 1 aM.
[CoroNa Assay] 30 hours later, the cells were washed with 2 mL HBSS (Hank's Balanced Salt Solution, Cat. Number 14025-092, Life Technologies), and then charged with 2 mL fresh HBSS. Then the cells were treated with 5 μM “CoroNa Green” (Cat. Number C36676, Life Technologies) at 37° C. 30 min later, the cells were washed 2× with 2 mL HBSS, and charged with 2 mL fresh HBSS. The culture dish was mounted on an Olympus fluorescence microscope equipped with a digital video camera to continuously capture the green fluorescence images of the cells. The cells were acutely treated with 100 mM NaCl, and then the changes in fluorescence cellular images were digitally recorded over a period of 3 min. There were about 4 cells per frame on average. The fluorescence intensities from each individual cell were traced at the resolution of a second. The traces of the intracellular fluorescence intensities from individual cells were overlaid and averaged at each time point. The average of the traces from the individual cells of each ASO concentration were plotted as provided in FIG. 30A using ImageJ program (version 1.50i, NIH). The average fluorescence intensity trace was taken as the individual intra-cellular sodium concentration trace for the cells treated with “SCN-ASO 7” at 0 (negative control), 100 or 1,000 zM.
“SCN-ASO 3” was evaluated for its ability to inhibit the sodium current in PC3 cells using “CoroNa Green” according to the protocol described in “SCN9A Example 5”, unless noted otherwise.
“SCN-ASO 8” was evaluated for its ability to inhibit the sodium current in PC3 cells using “CoroNa Green” according to the protocol described in “SCN9A Example 3”, unless noted otherwise.

In series [2] the test system is rats with diabetes-induced peripheral neuropathic pain (DPNP). The experiment in a line: Reversal of allodynia (von Frey) in rats with diabetes-induced peripheral neuropathic pain. The series is classed as in vivo, rat. Conditions: 100 pmole/Kg subcutaneous in Days 11, 13, 15, 17 and 19. The procedure: “SCN-ASO 7”, “SCN-ASO 8”, “SCN-ASO 21”, “SCN-ASO 35”, “SCN-ASO 36” and “SCN-ASO 37” were evaluated for their ability to reverse the allodynia in rats with diabetes-induced peripheral neuropathic pain (DPNP). In this example, the six SCN9A ASOs targeting a total of five splice sites were evaluated for their ability to reverse the allodynia induced by diabetic neuropathy in rats.
[Induction of DPNP and Grouping] Diabetes was induced in rats by an intraperitoneal injection of streptozotocin at 60 mg/Kg in Day 0. In Day 10, rats with DPNP were randomly assigned to […] of negative control (vehicle only), “SCN-ASO 7” 100 pmole/Kg, “SCN-ASO 8” 100 pmole/Kg, “SCN-ASO 21” 100 pmole/Kg, “SCN-ASO 35” 100 pmole/Kg, “SCN-ASO 36” 100 pmole/Kg, and “SCN-ASO 37” 100 pmole/Kg. The animals were grouped based on the von Frey scores of individual animals in Day 10. (N=8-9 per group) Allodynia was scored using a set of microfilaments (Touch Test®) according to the “Up & Down” method. [J Neurosci. Methods vol 53(1), 55-63 (1994)]
[ASO Treatment and von Frey Scoring] ASO solutions for injection were prepared by serially diluting aqueous mother stock solutions of the SCN9A ASOs to 100 nM in PBS (phosphate buffered saline). Animals were subcutaneously administered with ASO at 1 mL/Kg in Days 11, 13, 15, 17 and 19. Von Frey scoring was carried out 2 hours post dose in Days 11, 13, 15, 17 and 19. Von Frey scoring was additionally performed in Days 21 and 23 in order to assess the duration of the therapeutic activity after the final dosing. Daily von Frey scores were evaluated for statistical significance by student's t-test against the negative control group (vehicle only, i.e., PBS).

For series [3], the system named is mdx mice. Description: Histopathology by H&E staining of skeletal muscle in mdx mice. The series is classed as in vivo, mouse. An excerpt:
[Histopathology by H&E Staining] Muscular inflammation and degeneration are the hallmark of DMD symptoms. Skeletal muscle samples were subjected to histopathology evaluation by H&E staining. FIG. 43 provides a representative set of H&E staining images for the triceps by group and sampling time point.

[C(1O2)] = modified PNA monomer acting as cytosine, C(pOq) type, 1O2; [A(5)] = modified PNA monomer acting as adenine, A(p) type, p=5; [G(6)] = modified PNA monomer acting as guanine, G(p) type, p=6; {Fethoc} = N-terminal Fethoc cap; {NH2} = C-terminal amide

In the case of “Fethoc-AC(1O2)T-TA(5)C-G(6)CA-A(5)AA(5)-AC(1O2)A-A(5)-NH2 (ACTTACGCAAAAACAA; all peptide nucleic acid (PNA), [C(1O2)] at 2, 14, [A(5)] at 5, 10, 12, 16, [G(6)] at 7, 5' {Fethoc}, 3' {NH2}; peptide nucleic acid written N to C) [SCN-ASO 7]”, the “decrease of sodium current (CoroNa)” value in series [1] (PC3 cells, 100 zM) is on record as “no notable decrease”. For the same substance, the “decrease of sodium current / sodium channel activity (CoroNa)” value in series [1] (PC3 cells, 1,000 zM) worked out at 37%. The “average cellular fluorescence intensity (CoroNa Green)” value in series [1] (PC3 cells, 1,000 zM, at 100 sec after 100 mM NaCl) was 51.47 arbitrary unit. In series [2], the “maximum therapeutic efficacy based on the von Frey scores in Day 19” value was around 76%.

Take “Fethoc-A(5)GA-G(6)CC(1O2)-TCA-A(5)AA(5)-T-NH2 (antisense AGAGCCTCAAAAT; Fethoc N-cap, C-terminal amide, chemistry not fully specified) [DMD-ASO 1]”: the “muscular degeneration and inflammation (H&E)” value in series [3] (chronic 200 pmole/Kg) is recorded as “reversed”. Besides, the “severity of the histopathology findings (H&E)” value in series [3] (chronic 10 and 50 pmole/Kg) is “weaker than the severity in the mdx negative control, but stronger than that in the 200 pmole/Kg group”.
